Source: BindingDB's records for doi:10.1016/j.bmc.2010.04.086 (Hoshi University, 2010)

Each compound was assayed against T1, Polyphenol oxidase 2 (Agaricus bisporus, UniProt O42713) (assay: Inhibition of mushroom tyrosinase).
T1 sequence (O42713 whole entry): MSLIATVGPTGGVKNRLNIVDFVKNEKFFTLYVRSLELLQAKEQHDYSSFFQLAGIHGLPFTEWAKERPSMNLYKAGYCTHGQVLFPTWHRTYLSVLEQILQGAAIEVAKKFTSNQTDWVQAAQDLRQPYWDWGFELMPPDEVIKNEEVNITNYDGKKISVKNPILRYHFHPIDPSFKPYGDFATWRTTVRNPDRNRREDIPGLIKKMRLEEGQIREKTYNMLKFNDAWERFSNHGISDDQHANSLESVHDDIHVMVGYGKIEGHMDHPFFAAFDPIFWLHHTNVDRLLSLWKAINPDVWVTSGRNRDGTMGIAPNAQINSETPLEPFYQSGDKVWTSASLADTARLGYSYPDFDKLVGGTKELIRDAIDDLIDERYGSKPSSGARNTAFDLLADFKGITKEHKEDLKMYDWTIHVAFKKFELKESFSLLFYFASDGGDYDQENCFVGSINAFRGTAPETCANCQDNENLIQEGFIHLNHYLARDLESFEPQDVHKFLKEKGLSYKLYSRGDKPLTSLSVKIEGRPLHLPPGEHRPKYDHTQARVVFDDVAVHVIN

**Q.** With `COC(=O)C1C2=Nc3c(O)cccc3[C@]23CCN2C[C@@H](C(C)=O)[C@H]1C[C@@H]23` (stereo not given in full) [Alpneumine D] as the compound, how does the IC50 read?
**A.** > 100 µM

**Q.** How did the IC50 turn out when `COC(=O)C1C2=Nc3ccccc3[C@]23CC[N+]2([O-])C[C@H](C(C)=O)[C@H]1C[C@H]32` (stereo not given in full) [Alpneumine C] was run?
**A.** > 100 µM

**Q.** With `COC(=O)C1C2=Nc3ccccc3[C@]23CCN2C[C@@H](C(C)=O)[C@H]1C[C@@H]23` (stereo not given in full) [Alpneumine E] as the compound, how does the IC50 read?
**A.** > 100 µM

**Q.** For `COC(=O)C1C2=Nc3c(O)cccc3[C@]23CC[N+]2([O-])C[C@H](C(C)=O)[C@H]1C[C@H]32` (stereo not given in full) [Alpneumine A], which IC50 is on record?
**A.** > 100 µM

**Q.** Which IC50 does the source give for `COC(=O)C1C2=Nc3c(O)cccc3[C@]23CCN2C[C@H](C(C)=O)[C@H]1C[C@@H]23` (stereo not given in full) [Alpneumine B] here?
**A.** > 100 µM
